According to ChEMBL document CHEMBL3507680, “University of Dundee, Gates Library screen for HepG2 cell viability”:

Assay: Human HepG2 cell viability assay in 384 well format
Assay type: toxicity, cell-based
Parameters: dose 125 nL, time 70.5 hour; concentration not given beside the values
Conditions: HepG2 cells, read-out: Inhibition

SMILES	cytotoxicity at 70.5 h [%]
CS(=O)(=O)NC1CCc2[nH]c(=O)ccc2C1 (stereo not drawn)	-4.24
CO[C@H]1CC[C@H]2[C@H]1OCCN2C(=O)CC1=CCCCC1	-2.24
CCO[C@@H]1CC[C@H]2[C@H]1OCCN2C(=O)CC1=CCCCC1	-2.71
Cc1ncccc1NC(=O)[C@@H]1CCO[C@@H]2CCN(c3ccncn3)C[C@H]21	-6.04
CC(=O)N1CC[C@H]2OCC[C@@H](C(=O)Nc3cccnc3C)[C@H]2C1	-3.55
O=C(c1cccnc1)N1CCO[C@@H]2CNC[C@@H]21	-4.67
CCOCc1nn(C)c2c1CN(CCO)CC2	-6.16
CN1CCCN(C(=O)c2nc3c(o2)CN(S(C)(=O)=O)C3)CC1	-14.5
CC(C)NC(=O)N1CC[C@H]2N(C)CC[C@@]2(C(=O)Nc2cccnc2)CC1	-10.8
Cc1nc(CN2CCC3(C2)CN(C(=O)c2ccc[nH]2)C3)cs1	-5.84
O=C(NCC1CC1)c1cc2c(s1)CCN2c1ncccn1	-0.353
O=C(NCCN1CCCC1)c1cc2c(s1)CCN2c1ncccn1	-5.02
CCOCC1CN(C(=O)c2cccs2)Cc2cnn(CC3CC3)c21 (stereo not drawn)	-6.77
COCCN1CCN(S(C)(=O)=O)Cc2cccnc21	-5.85
O=c1ccc2c(n1CC1CC1)CCN(c1ncccn1)CC2	-4.49
CCS(=O)(=O)N1CCN(C)c2ncccc2C1	-7.16
CC(=O)N1CCO[C@@H]2CN(S(=O)(=O)c3ccc(C)cc3)CC[C@@H]2C1	11.2
CCN(C(=O)c1nc2c(s1)CCCN2C(C)=O)C(C)C	2.41
c1cc(-c2n[nH]cc2-c2ccnc(N3CCCCCC3)n2)ccn1	0.607
CC(C)[C@H](CO)Nc1nccc(-c2c[nH]nc2-c2ccncc2)n1	-3.12
Cc1ncc(-c2ccnc(NCCc3ccc(F)cc3)n2)c(=O)[nH]1	-12.9
CC(=O)N1CCC(n2nccc2-c2cnc(NCCO)nc2)CC1	-9.44

SMILES	cytotoxicity at 70.5 h [%]
CNc1nc2c(s1)C(=O)CN(C(=O)NCCc1ccccc1)C2	17.6
CC[C@@H](CO)Nc1nccc(-c2cnc3sc(C)cn3c2=O)n1	15.2
CC(=O)Nc1nc2c(s1)C1(CCCC1)Nc1ccccc1S2	-3.55
Cc1ncc(-c2ccnc(N3CC[C@H](O)C3)n2)c(-c2cccnc2)n1	-6.52
CC(C)CNc1nccc(-c2cnc3sc(Cl)cn3c2=O)n1	-6.64
O=c1[nH]c(-c2ccncc2)ncc1-c1ccnc(N2CCOCC2)n1	-2.39
C[C@@H](CO)Nc1nccc(-c2cnc3sc(Cl)cn3c2=O)n1	-8.27
CC(C)[C@H](NS(C)(=O)=O)C(=O)NCc1cc(-c2ccco2)n[nH]1	-13.8
CCNc1nc(-c2cccnc2)c(-c2ccnc(NCCO)n2)s1	-13.3
CC(=O)N1CCC(n2ccc(-c3cnc(NCC(C)C)nc3)n2)CC1	-5.12
CC[C@H](C)Nc1ncc(-c2ccn(C3CCN(C(C)=O)CC3)n2)cn1	-5.16
Cc1csc2ncc(-c3ccnc(N4CCC[C@@H]4CO)n3)c(=O)n12	-2.68
Cc1cn2c(=O)c(-c3ccnc(NC4CCOCC4)n3)cnc2s1	-4.12
CC[C@@H](C)[C@@H](N)C(=O)Nc1cccc(-c2cnc(NCCO)nc2)c1	-7.48
c1cncc(-c2nc(C3CC3)ncc2-c2ccnc(N3CCCC3)n2)c1	-2.86
CC(C)Nc1nc2c(s1)C(=O)CN(C(=O)NCc1ccccc1)C2	1.44
CC(C)CC(=O)N1CC(=O)c2sc(Nc3ccc(F)cc3)nc2C1	1.95
Cc1cc2nc(C3CCCCC3)c(-c3ccnc(NCCO)n3)cn2n1	-5.35
CC(C)CC(=O)N1CC(=O)c2sc(Nc3ccc(C#N)cc3)nc2C1	0.0296
CC(C)CC(=O)N1CC(=O)c2sc(NCCc3ccccc3)nc2C1	0.452
CC(=O)Nc1nc2c(s1)C1(CCN(C)CC1)Nc1ccccc1S2	3.04
CNCC(=O)Nc1ccc(-c2cnc(NCCS(C)(=O)=O)nc2)cc1	-0.605

SMILES	cytotoxicity at 70.5 h [%]
CC[C@H](C)[C@H](N)C(=O)Nc1nc(-c2cnc(N(C)CCO)nc2)cs1	-1.04
CS(=O)(=O)NCc1cc(-c2cc(F)cc(F)c2)nc(N2CCOCC2)n1	-13.9
CN1CCCN(c2nccc(-c3c[nH]c4ccc(Br)cc34)n2)CC1	9.19
Cc1[nH]c2ccccc2c1-c1ccnc(NCCN2CCOCC2)n1	25.2
Cc1csc2ncc(-c3ccnc(N4CCCC[C@@H]4CO)n3)c(=O)n12	20.9
O=c1c(-c2ccnc(NC3CCOCC3)n2)cnc2sc(Cl)cn12	1.36
Cc1ncc(-c2ccnc(N3CCCCC3)n2)c(=O)[nH]1	-7.09
CNc1nc2c(s1)C(=O)CN(C(=O)NCc1ccccc1)C2	-9.93
CCNc1nc2c(s1)C(=O)CN(C(=O)NCCc1ccccc1)C2	-17.7
COc1ccc(OC)c(C(C(=O)O)N2CCSCC2)c1 (stereo not drawn)	-4.28
CCOc1ccc(-c2ccnc(C)n2)cc1C(=O)O	-4.51
Cc1noc(C)c1S(=O)(=O)N1C[C@@H](C(=O)O)[C@H](c2ccccn2)C1	-10.9
Cc1nccn1CCCn1c(=O)cnc2ccccc21	-10.5
CN1CCCCC1C(=O)N1CCN(c2ccccc2C#N)CC1 (stereo not drawn)	-2.64
CC(C)c1cc(CN(C)C(=O)CN2CCC(C(N)=O)CC2)no1	-14.7
CCCn1ncc(C(=O)N2CCN(C3CCCC3)CC2)c1C	-3.82
Cc1ccc2[nH]c(CN3CC[C@@H](N4CCN(C)CC4)[C@H](O)C3)c(C)c2c1	-6.53
CC(O)c1cccc(N2CCC3(CCC(=O)N(CC(N)=O)C3)CC2)n1 (stereo not drawn)	-11.2
CNc1cc(C)nc(NC2CCCN(C3Cc4ccccc4C3)C2)n1 (stereo not drawn)	28.6
CC(C)Cc1n[nH]c(C2CC(=O)N(CC(C)C)C2)n1 (stereo not drawn)	-5.1
CC(C)N[C@@H]1CC[C@@H]1NC(=O)c1ccccc1OC(F)(F)C(F)F	14.2
CCn1cc(CN2CCCn3nc(CNS(C)(=O)=O)cc3C2)c(C)n1	13.3

SMILES	cytotoxicity at 70.5 h [%]
Cc1ccc(C(=O)N2CCN(C)C3(CCC(=O)N(C)CC3)C2)c(F)c1 (stereo not drawn)	-9.61
CCCc1cncnc1N1CCC(NCc2ccc(O)cc2)CC1	-2.53
CCn1ccnc1CN(C)c1nc(-c2ccc(Cl)cc2)nc2c1CNC2	-9.22
Cc1nn(C)cc1-c1ccnc(N2CCN(c3cnccn3)CC2)n1	-0.227
O=C(c1cn2ccsc2n1)N1CCN(CC2CC2)[C@@H]2CS(=O)(=O)C[C@@H]21	-10.5
O=C(c1cn(CCN2CCCCC2)nn1)N1CCCCO1	11
O=C1NC2(CCN(C(=O)c3ccc(Cl)cn3)CC2)CC1c1ccccc1 (stereo not drawn)	8.76
CCc1cnc(NCc2nc(CSC)no2)nc1	10.1
CCCc1cc(C(=O)N(Cc2cccnc2)C[C@@H]2CCC(=O)N2)no1	-6.41
Cc1cnc(C)c(N2CCCC(C/C=C/c3ccccc3)(C(=O)O)C2)n1 (stereo not drawn)	-7.68
CN1CCN(Cc2ccccc2Oc2cncc(C(N)=O)n2)CC1	-3.62
Nc1cc(C(=O)N2CCCC(C(=O)CCc3ccccc3)C2)ccn1 (stereo not drawn)	-3.17
CC(C)c1ncc(CN2C[C@@H](CN3CCC(O)CC3)[C@@H](CO)C2)cn1	37.8
CN1CCN(c2ccc(C(=O)N3CCCC(c4ncc[nH]4)C3)cc2)CC1 (stereo not drawn)	-9.77
CC1(C)CNC(=O)c2nc(-c3nnn[nH]3)[nH]c2C1	-3.01
Nc1ncc(-c2csc(NC(=O)C[C@H]3COCCN3)n2)cn1	-6.96
CC(C)[C@H](N)CC(=O)Nc1nc(-c2cnc(N3CCOCC3)nc2)cs1	-1.39
Cc1occc1C(=O)NCC1OCCc2cn(C)nc21 (stereo not drawn)	-3.82
O=C(O)[C@]12CCCN(C3CCOC3)C[C@H]1CN(c1ncccn1)C2 (stereo partly drawn)	-2.93
Cn1nc(COCC2CC2)c2c1CCN(Cc1cccs1)C2	-4.53
O=C(c1ccccc1)N1CCCC2(CCN2Cc2cccc(F)c2)C1 (stereo not drawn)	-9.02
COc1cc(N2CCC3(CCN(Cc4nccs4)CC3)C2)ncn1	30.8

SMILES	cytotoxicity at 70.5 h [%]
COCCN1CCOCC12CCN(c1cnccn1)CC2	-6.94
CCN1CCOCC12CCN(c1cnccn1)CC2	-7.58
Cc1noc(C)c1CN1CCOCC12CCN(c1cnccn1)CC2	-6.5
Cc1noc(C)c1CN1CCOCC12CCN(c1nccs1)CC2	-8.54
CS(=O)(=O)N1CCc2ccc(=O)n(CCN3CCCC3)c2CC1	-6.85
CN(C)CCn1c2c(ccc1=O)CC(NC(=O)NC1CCCC1)CC2 (stereo not drawn)	-6.88
CN1CCN(C2COC3(CCN(c4ccc(C#N)cc4)CC3)C2)CC1 (stereo not drawn)	-6.07
CN(C)CCn1c2c(ccc1=O)CC(NC(=O)c1ccsc1)CC2 (stereo not drawn)	11.3
CCN1CCn2c(-c3cccc(F)c3)cnc2C12CCN(C(C)=O)CC2	2.55
Cc1oncc1C(=O)N1CC[C@H]2[C@H](C[C@@H](CN3CCCC3)N2C)C1	-2.32
CNC(=O)[C@@H]1C[C@H]2CN(Cc3csc(C)n3)C[C@H]2N1C(C)C	-4.84
Cc1ncccc1NC(=O)[C@@H]1CCO[C@@H]2CCN(c3ccccc3)C[C@@H]21	-3.01
CCN1CCC(N2CCC(C(=O)N(C)C)CC2)CC1	-5.59
Cc1noc(C)c1CN1C[C@H]2CN(Cc3cccc(F)c3)C[C@H]2C1	-1.37
COCCN1CCC2(CC1)CC(NCc1ccc(C)s1)c1ccccc12 (stereo not drawn)	2.38
Cc1noc(C)c1CN1CCO[C@H]2CN(Cc3cccc(F)c3)C[C@H]21	-13.7
CN(C)C(=O)COCC1CN(Cc2ccco2)Cc2ncn(C)c21 (stereo not drawn)	-0.299
COCCN1Cc2nccn2CC(COCc2csc(C)n2)C1 (stereo not drawn)	-1.7
CN(C)CCN1CCO[C@H]2CN(C(=O)c3ccsc3)C[C@H]21	-6.87
CN(C)C1CCC2(CCN(Cc3cccnc3)CC2)c2ccccc21 (stereo not drawn)	-3.39
